No end group written: not given here.
Columns and labels:
THP-1 cells [1] = assay: Cell morphology (cytospin, Diff-Quick staining); type: cell-based, human; conditions: THP-1 cells that remained viable after 24 hours of treatment
Method: FIG. 9. IL1RAP blockade changes in cell morphology of IL1RAP dependent human leukemia cells. THP1 cells were exposed to 100 μM IL1RAP peptide P2, scrambled control peptide (scrambled), peptide buffer (vehicle) or left untreated and evaluated for cell morphology.
1×10^4 THP-1 cells after treatment with peptides were rinsed with PBS and 0.1 ml of cell suspension was cytospun onto polylysine coated slides at minimum speed for 4 minutes in a cytocentrifuge (StatSpin Cytofuge). Slides were stained according to manufacturer's protocol using the Romanowsky staining Diff-Quick (IMEB) kit. Cells were imaged with an Axiovert 200M microscope (Zeiss) and Olympus SZ61 microscope.

[2] = tested on: healthy bone marrow mononuclear cells (BMMNC); assay: Clonogenic assay in methylcellulose, healthy BMMNC; type: cell-based; conditions: 300 μM for 4 hours, colonies scored at 14 days
Method: FIG. 6. […] BMMNC were exposed to scrambled peptide (scrambled), or IL1RAP peptides (P1 and P2) for 4 hours at 300 μM concentrations or left untreated (UT) and evaluated for colony formation capacity in methylcellulose. Colonies were scored at 14 days. The results are expressed as total number of colonies/5×10^4 plated cells. Error bars represent the standard deviation of two replicates.
Cell viability was assessed at the indicated time points by trypan blue staining and manual cell counts. Viable cells were plated in methylcellulose (StemCell technologies H4434, or R&D HSC002SF) at 1000 cells/ml in 6-well plates for cell lines and at 5×10^4 cells/ml for bone marrow mononuclear cells (BMMNC). Cells were incubated at 37° C. and 5% CO2. Colonies were scored after 7 days or 14 days in culture for cell lines or primary cells, respectively.

THP-1 cells [3] = assay: Flow cytometric determination of cell death (Annexin V/DAPI); type: cell-based, human; conditions: 300 μM
Method: FIG. 8. IL1RAP blockade causes cell death of IL1RAP dependent human leukemia cells. THP1 cells were exposed to 300 μM IL1RAP peptides (P1 and P2), scrambled control peptide (scrambled), peptide buffer (vehicle) or left untreated (UT) and evaluated for cell viability determined by Annexin V/DAPI staining and flow cytometry. The results are expressed as percentage of total cells.
In order to determine viability after peptide treatment, 1×10^4 THP-1 cells were washed with PBS and mixed with pre-diluted PE-conjugated Annexin V (BD Pharmigen) and DAPI. Cells were stained at room temperature for 15 minutes and suspended in 0.2 ml of Annexin V-FLUOS incubation buffer (Roche) for analysis.

inhibitory effects on healthy control bone marrow mononuclear cells (clonogenic potential) [2]	Substance	cell morphology (THP-1 cells [1])	overall reduction in viability in comparison to the scrambled control peptide (THP-1 cells [3])
–	LKDMPGRPNERDKVAlTV (LKDMPGRPNERDKVAITV; not fully specified) [scrambled peptide]	maintained a blast-like morphology	–
no inhibitory effects	AGDKDRLIVMENKPTHGID [Peptide P2, AGDKDRLIVMENKPTHGID]	–	28%
no inhibitory effects	AGDKDRLIVMENKPTRPV [Peptide P1, AGDKDRLIVMENKPTRPV]	–	14%

— patent US11137397B2, “Peptides for blocking IL1RAP protein-protein interaction and uses thereof for treatment of disease” (Albert Einstein College of Medicine, priority 2014, dated 2021)
